The values that follow come from US7297700B2, “Bicycloheteroaryl compounds as P2X7 modulators and uses thereof” (Renovis, Inc., priority 2005, dated 2007).

Each structure is given as a SMILES string.

The first assay concerns IL-1β release from THP-1 cells. Briefly: IL-1β Release Assay (Alternate Method), THP-1 cells. Type of assay: cell-based, human. The following applies: Homo sapiens, THP-1, read-out: IL-1β % inhibition. In outline:
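IL-1β release, measured by ELISA, follows 45 min BzATP (250 uM final) stimulation of THP-1 cells given 30 min compound pretreatment. Cells were first primed 16 h with LPS and IFN-γ (100 ng/mL each), then 2 h with fresh LPS; inhibition expressed in percent after background correction.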
Broadly, the inhibition is the relative decrease from the control value, in per cent. Consider `O=C(Nc1ncnc2c1CCN(S(=O)(=O)c1ccccc1)C2)C12CC3CC(CC(C3)C1)C2` [Compound 481], for which the inhibition at 0.3 µM lay in the range of 25 to 50%.

The assay is the same for the next values; noted with them: at 0.3 μM; THP-1 cells.
With `O=C(CC12CC3CC(CC(C3)C1)C2)Nc1ncnc2c1CCN(Cc1ccccc1Cl)C2` [Compound 27], the IL-1β % inhibition entry is “+++ (compound exhibited 50-75% inhibition at 0.3 μM)”.

As to `CC1(C)CCCC(O)(CNC(=O)c2ncnc3c2CCN(Cc2ccccc2)C3)C1` (stereo not shown) [Compound 59], the IL-1β % inhibition result is given as “+ (compound exhibited 0-25% inhibition at 0.3 μM)”.

Regarding `O=C(CC12CC3CC(CC(C3)C1)C2)Nc1ncnc2c1CCN(Cc1ccc(F)c(F)c1)C2` [Compound 322], the IL-1β % inhibition entry is listed as “+ (compound exhibited 0-25% inhibition at 0.3 μM)”.

As to `O=C(CC12CC3CC(CC(C3)C1)C2)Nc1ncnc2c1CCN(Cc1ccc(Oc3ccccc3)cc1)C2` [Compound 75], the IL-1β % inhibition entry is given as “+ (compound exhibited 0-25% inhibition at 0.3 μM)”.

In the case of `CC12CC3CC(C)(C1)CC(CC(=O)Nc1ncnc4c1CCN(Cc1ccc(F)cc1)C4)(C3)C2` [Compound 376], the IL-1β % inhibition result is listed as “++ (compound exhibited 25-50% inhibition at 0.3 μM)”.

With `CC12CC3CC(C)(C1)CC(CC(=O)Nc1ncnc4c1CCN(Cc1ccccc1F)C4)(C3)C2` [Compound 371], the IL-1β % inhibition result is “+++ (compound exhibited 50-75% inhibition at 0.3 μM)”.

Take `Cc1ccc(CN2CCc3c(ncnc3C(=O)NCC3CCCCC3)C2)cc1` [Compound 55]: the IL-1β % inhibition entry was “+ (compound exhibited 0-25% inhibition at 0.3 μM)”.

On to `O=C(CC12CC3CC(CC(C3)C1)C2)Nc1ncnc2c1CCN(C(=O)Cc1ccccc1)C2` [Compound 225], for which the IL-1β % inhibition result is given as “++ (compound exhibited 25-50% inhibition at 0.3 μM)”.

Consider `O=C(CC12CC3CC(CC(C3)C1)C2)Nc1ncnc2c1CCN(Cc1c[nH]cn1)C2` [Compound 82], for which the IL-1β % inhibition result is “+++ (compound exhibited 50-75% inhibition at 0.3 μM)”.

Regarding `O=C(NCC1CCCCC1)c1ncnc2c1CCNC2` [Compound 2], the IL-1β % inhibition result is recorded as “+ (compound exhibited 0-25% inhibition at 0.3 μM)”.

With `O=C(CC12CC3CC(CC(C3)C1)C2)Nc1ncnc2c1CCN(S(=O)(=O)c1ccc(Oc3cccnc3)cc1)C2` [Compound 174], the IL-1β % inhibition entry is “++++ (compound exhibited 75% or greater inhibition at 0.3 μM)”.

For `COc1ccc(S(=O)(=O)N2CCc3c(ncnc3NC(=O)CC34CC5CC(CC(C5)C3)C4)C2)cc1OC` [Compound 151], the IL-1β % inhibition entry is recorded as “+ (compound exhibited 0-25% inhibition at 0.3 μM)”.

Regarding `O=C(CC1CCCCCC1)Nc1ncnc2c1CCN(CC1CCCC1)C2` [Compound 128], the IL-1β % inhibition entry is “+ (compound exhibited 0-25% inhibition at 0.3 μM)”.

For `CC12CC3CC(C)(C1)CC(CC(=O)Nc1ncnc4c1CCN(C(=O)c1cccc(C(F)(F)F)c1)C4)(C3)C2` [Compound 383], the IL-1β % inhibition result is recorded as “+ (compound exhibited 0-25% inhibition at 0.3 μM)”.

As to `O=C(CC12CC3CC(CC(C3)C1)C2)Nc1ncnc2c1CCN(Cc1ccc3[nH]ccc3c1)C2` [Compound 64], the IL-1β % inhibition entry is listed as “+ (compound exhibited 0-25% inhibition at 0.3 μM)”.

For `COc1ccc(F)c(CN2CCc3c(ncnc3NC(=O)CC34CC5CC(CC(C5)C3)C4)C2)c1` [Compound 104], the IL-1β % inhibition entry is “+++ (compound exhibited 50-75% inhibition at 0.3 μM)”.

Regarding `Cc1cc(C(=O)N2CCc3c(ncnc3NC(=O)CC34CC5CC(CC(C5)C3)C4)C2)no1` [Compound 283], the IL-1β % inhibition result is “+++ (compound exhibited 50-75% inhibition at 0.3 μM)”.

`O=C(NCC12CC3CC(CC(C3)C1)C2)c1ncnc2c1CCN(Cc1ccccc1Cl)C2` [Compound 337]: the IL-1β % inhibition entry is listed as “++ (compound exhibited 25-50% inhibition at 0.3 μM)”.

Take `O=C(CC12CC3CC(CC(C3)C1)C2)Nc1ncnc2c1CCN(C(=O)c1ccc3c(c1)CCO3)C2` [Compound 309]: the IL-1β % inhibition result is “++++ (compound exhibited 75% or greater inhibition at 0.3 μM)”.

In the case of `O=C(CC12CC3CC(CC(C3)C1)C2)Nc1ncnc2c1CCN(C(=O)c1cccc(Cl)c1)C2` [Compound 253], the IL-1β % inhibition entry is “+++ (compound exhibited 50-75% inhibition at 0.3 μM)”.

Take `O=C(CC12CC3CC(CC(C3)C1)C2)Nc1ncnc2c1CCN(Cc1ccc(Cl)cc1)C2` [Compound 41]: the IL-1β % inhibition entry is listed as “+ (compound exhibited 0-25% inhibition at 0.3 μM)”.

For `Cc1cc(C(=O)N2CCc3c(ncnc3NC(=O)CC34CC5CC(CC(C5)C3)C4)C2)n(C(C)(C)C)n1` [Compound 300], the IL-1β % inhibition entry is recorded as “+ (compound exhibited 0-25% inhibition at 0.3 μM)”.

`COc1ccc(CN2CCc3c(ncnc3NC(=O)CC34CC5CC(CC(C5)C3)C4)C2)c(OC)c1` [Compound 30]: the IL-1β % inhibition entry is “++++ (compound exhibited 75% or greater inhibition at 0.3 μM)”.

The same assay, now with this note: at 0.3 μM; THP-1 cells, BzATP-stimulated.
Regarding `O=C(c1ccc(F)cc1)N1CCc2c(ncnc2NC(=O)C23CC4CC(CC(C4)C2)C3)C1` [Compound 423], the IL-1β % inhibition result was “++ (compound exhibited 25-50% inhibition at 0.3 μM)”.

Consider `O=C(Nc1ncnc2c1CCN(Cc1cccc(Cl)c1)C2)C12CC3CC(CC(C3)C1)C2` [Compound 598], for which the IL-1β % inhibition entry is listed as “+ (compound exhibited 0-25% inhibition at 0.3 μM)”.

As to `Cc1ccc(CN2CCc3c(ncnc3NC(=O)C34CC5CC(CC(C5)C3)C4)C2)cc1C` [Compound 585], the IL-1β % inhibition entry was “++ (compound exhibited 25-50% inhibition at 0.3 μM)”.

With `O=C(Nc1ncnc2c1CCN(S(=O)(=O)c1cc(Cl)cc(Cl)c1)C2)C12CC3CC(CC(C3)C1)C2` [Compound 542], the IL-1β % inhibition result is “+ (compound exhibited 0-25% inhibition at 0.3 μM)”.

As for `O=C(Nc1ncnc2c1CCN(S(=O)(=O)c1ccc(Oc3ccc(C(F)(F)F)cc3)cc1)C2)C12CC3CC(CC(C3)C1)C2` [Compound 510], the IL-1β % inhibition result is on record as “++++ (compound exhibited 75% or greater inhibition at 0.3 μM)”.

Turning to `O=C(Nc1ncnc2c1CCN(S(=O)(=O)Cc1cccc(C(F)(F)F)c1)C2)C12CC3CC(CC(C3)C1)C2` [Compound 520], the IL-1β % inhibition result was “++ (compound exhibited 25-50% inhibition at 0.3 μM)”.

Take `N#Cc1ccc(CN2CCc3c(ncnc3NC(=O)C34CC5CC(CC(C5)C3)C4)C2)cc1` [Compound 603]: the IL-1β % inhibition result is recorded as “+ (compound exhibited 0-25% inhibition at 0.3 μM)”.

On to `O=C(Nc1ncnc2c1CCN(S(=O)(=O)c1cccc(OC(F)(F)F)c1)C2)C12CC3CC(CC(C3)C1)C2` [Compound 497], for which the IL-1β % inhibition result was “+ (compound exhibited 0-25% inhibition at 0.3 μM)”.

On to `Cc1ccc2occ(CN3CCc4c(ncnc4NC(=O)C45CC6CC(CC(C6)C4)C5)C3)c(=O)c2c1` [Compound 567], for which the IL-1β % inhibition result is listed as “++ (compound exhibited 25-50% inhibition at 0.3 μM)”.

For the compound `O=C(Nc1ncnc2c1CCN(Cc1ccc(Br)cc1)C2)C12CC3CC(CC(C3)C1)C2` [Compound 597], the IL-1β % inhibition entry was “+++ (compound exhibited 50-75% inhibition at 0.3 μM)”.

As to `O=C(Nc1ncnc2c1CCN(Cc1ccc(F)cc1)C2)C12CC3CC(CC(C3)C1)C2` [Compound 607], the IL-1β % inhibition entry was “++++ (compound exhibited 75% or greater inhibition at 0.3 μM)”.

In the case of `O=C(c1ccc(C(F)(F)F)cc1F)N1CCc2c(ncnc2NC(=O)C23CC4CC(CC(C4)C2)C3)C1` [Compound 438], the IL-1β % inhibition result is “++ (compound exhibited 25-50% inhibition at 0.3 μM)”.

Regarding `COc1ccc(C(=O)N2CCc3c(ncnc3NC(=O)C34CC5CC(CC(C5)C3)C4)C2)cc1` [Compound 407], the IL-1β % inhibition result was “+ (compound exhibited 0-25% inhibition at 0.3 μM)”.
